Laboratory results published in patent publication US20260042762A1 (Kymera Therapeutics, Inc., priority 2018, published 2026).
Structures can show the parent of a compound that is named as a salt.

Biological target: T1, MerTK (Homo sapiens, UniProt Q12866)
T1 construct: endogenous in cells; host or cells: Jurkat cells
T1 sequence (Q12866 21-999): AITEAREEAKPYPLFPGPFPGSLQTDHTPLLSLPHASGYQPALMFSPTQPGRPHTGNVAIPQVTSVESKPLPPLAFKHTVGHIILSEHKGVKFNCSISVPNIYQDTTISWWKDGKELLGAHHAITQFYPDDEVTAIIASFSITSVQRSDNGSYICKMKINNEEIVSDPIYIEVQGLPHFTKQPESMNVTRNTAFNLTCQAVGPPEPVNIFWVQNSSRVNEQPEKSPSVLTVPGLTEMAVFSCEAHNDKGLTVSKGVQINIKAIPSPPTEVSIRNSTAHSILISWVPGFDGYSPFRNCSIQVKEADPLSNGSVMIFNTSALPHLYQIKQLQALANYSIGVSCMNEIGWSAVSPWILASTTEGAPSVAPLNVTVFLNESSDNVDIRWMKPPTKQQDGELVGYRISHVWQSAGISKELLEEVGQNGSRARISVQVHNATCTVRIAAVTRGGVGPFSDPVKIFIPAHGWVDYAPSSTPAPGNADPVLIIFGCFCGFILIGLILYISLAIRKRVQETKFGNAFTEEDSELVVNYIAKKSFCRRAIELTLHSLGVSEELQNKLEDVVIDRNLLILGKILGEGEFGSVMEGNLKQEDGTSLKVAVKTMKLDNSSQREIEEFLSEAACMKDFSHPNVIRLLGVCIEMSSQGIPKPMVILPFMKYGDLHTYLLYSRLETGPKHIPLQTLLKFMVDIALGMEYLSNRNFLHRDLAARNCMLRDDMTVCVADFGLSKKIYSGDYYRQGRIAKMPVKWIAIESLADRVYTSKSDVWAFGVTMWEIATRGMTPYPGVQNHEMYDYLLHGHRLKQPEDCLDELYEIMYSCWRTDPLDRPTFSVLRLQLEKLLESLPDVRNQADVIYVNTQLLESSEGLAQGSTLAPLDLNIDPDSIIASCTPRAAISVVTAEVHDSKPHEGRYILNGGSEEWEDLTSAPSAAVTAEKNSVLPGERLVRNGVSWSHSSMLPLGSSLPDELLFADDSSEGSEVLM
Test: MerTk degradation in Jurkat cells (Western blot)
Type: cell-based
Details: Jurkat, 4 h, 0.001-1 μM, 4 hour-incubation at 37° C., read-out: Jurkat Max % MerTK Degradation
Procedure, shortened: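 Jurkat cells treated 4 h at 37 °C with compound at 0.001-1 μM final. RIPA lysates quantified by BCA, then MerTK probed by Western blot against actin loading control with IR-dye secondaries and Odyssey imaging.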

Row | SMILES | Dmax
1 | Cn1c(=O)n([C@H]2CCC(=O)NC2=O)c2ccc(CCO[C@H]3C[C@H](N4CCN(Cc5ccc(-c6cn([C@H]7CC[C@H](O)CC7)c7nc(NCCC(F)(F)F)ncc67)cc5)CC4)C3)cc21 [I-170, 3-(3-methyl-2-oxo-5-[2-[trans-3-[4-[(4-[7-[trans-4-hydroxycyclohexy1]-2-[(3,3,3-trifluoropropyl)amino]pyrrolo[2,3-d]pyrimidin-5-yl]phenyl)methyl]piperazin-1-yl]cyclobutoxy]ethyl]-1,3-benzodiazol-1-y1)piperidine-2,6-dione; formic acid] | > 50%
2 | Cn1c(=O)n([C@H]2CCC(=O)NC2=O)c2ccc(CCCOCCOC3CCN(C[C@H]4CC[C@@H](c5cn([C@H]6CC[C@H](O)CC6)c6nc(NCCC(F)(F)F)ncc65)CC4)CC3)cc21 [I-171, 3-[3-methyl-2-oxo-5-(3-[2-[(1-[[cis-4-[7-[trans-4-hydroxycyclohexyl]-2-[(3,3,3-trifluoropropyl)amino]pyrrolo[2,3-d]pyrimidin-5-yl]cyclohexyl]methyl]piperidin-4-yl)oxy]ethoxy]propyl)-1,3-benzodiazol-1-y1]piperidine-2,6-dione] | > 50%
3 | Cc1ncsc1-c1ccc(CNC(=O)[C@@H]2C[C@@H](O)CN2C(=O)[C@@H](NC(=O)COCCOCCOCCOCCN2CCN(Cc3ccc(-c4cn([C@H]5CC[C@H](O)CC5)c5nc(NCCC(F)(F)F)ncc45)cc3)CC2)C(C)(C)C)cc1 [I-173, (2S,4R)-1-[(2S)-3,3-dimethyl-2-(14-[4-[(4-[7-[(1r,4r)-4-hydroxycyclohexyl]-2-[(3,3,3-trifluoropropyl)amino]pyrrolo[2,3-d]pyrimidin-5-yl]phenyl)methyl]piperazin-1-yl]-3,6,9,12-tetraoxatetradecanamido)butanoyl]-4-hydroxy-N-[[4-(4-methyl-1,3-thiazol-5-yl)phenyl]methyl]pyrrolidine-2-carboxamide] | 20 to 50%
4 | CCC[C@H](C)Nc1ncc2c(-c3ccc(CN4CCN(C5CC(OCCc6ccc7c(c6)n(C)c(=O)n7C6CCC(=O)NC6=O)C5)CC4)cc3)cn([C@H]3CC[C@H](O)CC3)c2n1 (stereo partly drawn) [I-175, 3-[3-methyl-2-oxo-5-[2-(3-[4-[(4-[2-[(2S)-pentan-2-ylamino]-7-[trans-4-hydroxycyclohexyl]pyrrolo[2,3-d]pyrimidin-5-yl]phenyl)methyl]piperazin-1-yl]cyclobutoxy)ethyl]-1,3-benzodiazol-1-yl]piperidine-2,6-dione] | > 50%
5 | CCC[C@H](C)Nc1ncc2c(-c3ccc(CN4CCN(CCCOC5CN(Cc6ccc7c(c6)n(C)c(=O)n7C6CCC(=O)NC6=O)C5)CC4)cc3)cn([C@H]3CC[C@H](O)CC3)c2n1 (stereo partly drawn) [I-178, 3-(3-methyl-2-oxo-5-[[3-(3-[4-[(4-[2-[(2S)-pentan-2-ylamino]-7-[trans-4-hydroxycyclohexyl]pyrrolo[2,3-d]pyrimidin-5-yl]phenyl)methyl]piperazin-1-yl]propoxy)azetidin-1-yl]methyl]-1,3-benzodiazol-1-yl)piperidine-2,6-dione] | > 50%
6 | Cc1ncsc1-c1ccc(CNC(=O)[C@@H]2C[C@@H](O)CN2C(=O)[C@@H](NC(=O)C2(F)CC2)C(C)(C)C)c(OCCCCN2CCN(Cc3ccc(-c4cn([C@H]5CC[C@H](O)CC5)c5nc(NCCC(F)(F)F)ncc45)cc3)CC2)c1 [I-179, (2S,4R)-1-[(2S)-2-[(1-fluorocyclopropyl)formamido]-3,3-dimethylbutanoyl]-4-hydroxy-N-[[4-(4-methyl-1,3-thiazol-5-yl)-2-(4-[4-[(4-[7-[trans-4-hydroxycyclohexyl]-2-[(3,3,3-trifluoropropyl)amino]pyrrolo[2,3-d]pyrimidin-5-yl]phenyl)methyl]piperazin-1-yl]butoxy)phenyl]methyl]pyrrolidine-2-carboxamide] | 20 to 50%

More lines, now with the values ahead:

Row | Dmax | SMILES
7 | < 20% | CN(C)c1cccc2c(S(=O)(=O)Nc3cccc(-c4cnc(NCCOCCOCCN5CCN(Cc6ccc(-c7cn([C@H]8CC[C@H](O)CC8)c8nc(NCCC(F)(F)F)ncc78)cc6)CC5)nc4N4CCC(c5ccccc5)C4C(=O)O)c3)cccc12 (stereo partly drawn) [I-168, 1-(5-[3-[5-(Dimethylamino)naphthalene-1-sulfonamido]phenyl]-2-([2-[2-(2-[4-[(4-[7-[trans-4-hydroxycyclohexyl]-2-[(3,3,3-trifluoropropyl)amino]pyrrolo[2,3-d]pyrimidin-5-yl]phenyl)methyl]piperazin-1-yl]ethoxy)ethoxy]ethyl]amino)pyrimidin-4-yl)-3-phenylpyrrolidine-2-carboxylic acid]
8 | < 20% | CN(C)c1cccc2c(S(=O)(=O)Nc3cccc(-c4cnc(NCCOCCOCCOCCN5CCN(Cc6ccc(-c7cn([C@H]8CC[C@H](O)CC8)c8nc(NCCC(F)(F)F)ncc78)cc6)CC5)nc4N4CCC(c5ccccc5)C4C(=O)O)c3)cccc12 (stereo partly drawn) [I-169, 1-(5-[3-[5-(dimethylamino)naphthalene-1-sulfonamido]phenyl]-2-(12-[4-[(4-[7-[trans-4-hydroxycyclohexyl]-2-[(3,3,3-trifluoropropyl)amino]pyrrolo[2,3-d]pyrimidin-5-yl]phenyl)methyl]piperazin-1-yl]-4,7,10-trioxa-1-azadodecan-1-yl)pyrimidin-4-yl)-3-phenylpyrrolidine-2-carboxylic acid]
9 | > 50% | Cn1c(=O)n([C@H]2CCC(=O)NC2=O)c2ccc(CCCOCCOCC3CCN(C[C@H]4CC[C@H](c5cn([C@H]6CC[C@H](O)CC6)c6nc(NCCC(F)(F)F)ncc65)CC4)CC3)cc21 [I-172, 3-[3-methyl-2-oxo-5-(3-[2-[(1-[[trans-4-[7-[trans-4-hydroxycyclohexy1]-2-[(3,3,3-trifluoropropyl)amino]pyrrolo[2,3-d]pyrimidin-5-yl]cyclohexyl]methyl]piperidin-4-yl)methoxy]ethoxy]propy1)-1,3-benzodiazol-1-yl]piperidine-2,6-dione]
10 | 20 to 50% | Cc1ncsc1-c1ccc(CNC(=O)[C@@H]2C[C@@H](O)CN2C(=O)[C@@H](NC(=O)C2(F)CC2)C(C)(C)C)c(OCCOCCN2CCN(Cc3ccc(-c4cn([C@H]5CC[C@H](O)CC5)c5nc(NCCC(F)(F)F)ncc45)cc3)CC2)c1 [I-174]
11 | > 50% | CCC[C@@H](C)Nc1ncc2c(-c3ccc(CN4CCN(CCCO[C@H]5CCN(Cc6ccc7c(c6)n(C)c(=O)n7C6CCC(=O)NC6=O)C5)CC4)cc3)cn([C@H]3CC[C@H](O)CC3)c2n1 (stereo partly shown) [I-176]
12 | > 50% | CCC[C@H](C)Nc1ncc2c(-c3ccc(CN4CCN(CCCO[C@H]5CCN(Cc6ccc7c(c6)n(C)c(=O)n7C6CCC(=O)NC6=O)C5)CC4)cc3)cn([C@H]3CC[C@H](O)CC3)c2n1 (stereo partly drawn) [I-177, 3-(3-methyl-2-oxo-5-[[(3S)-3-(3-[4-[(4-[2-[(2S)-pentan-2-ylamino]-7-[trans-4-hydroxycyclohexyl]pyrrolo[2,3-d]pyrimidin-5-yl]phenyl)methyl]piperazin-1-yl]propoxy)pyrrolidin-1-yl]methyl]-1,3-benzodiazol-1-yl)piperidine-2,6-dione]
13 | < 20% | Cc1cc(CNCc2ccc(C(=O)N3CCC(C4CCN(Cc5ccc(-c6cn([C@H]7CC[C@H](O)CC7)c7nc(NCCC(F)(F)F)ncc67)cc5)CC4)CC3)cc2)ccc1-c1ccc2nn(CC3CC3)cc2c1 [I-180, trans-4-[5-(4-[[1-(4-[[([4-[2-(Cyclopropylmethyl)indazol-5-yl]-3-methylphenyl]methyl)amino]methyl]benzoyl)-[4,4-bipiperidin]-1-yl]methyl]phenyl)-2-[(3,3,3-trifluoropropyl)amino]pyrrolo[2,3-d]pyrimidin-7-yl]cyclohexan-1-ol hydrochloride]
